Earlier results as cited in US8173570B2, “Hydroconversion processes employing multi-metallic catalysts and method for making thereof” (Chevron U.S.A. Inc., priority 2007, dated 2012).

Test system: rats
Conditions: acute toxicity, as single oral dose to rats (definition b56-b57)

O=CC(=O)O [glyoxylic]
LD50: 3000 mg/kg
